Data from US7348425B2, “Inhibitors of HCV replication” (Bristol-Myers Squibb Company, priority 2004, dated 2008).

Tests used:
[1] = target: T1, HCV NS5B RdRp genotype 1b (Hepatitis C virus genotype 1b, UniProt Q9WMX2); assay: Modified HCV NS5B RdRp enzyme assay (with preincubation); assay type: biochemical
T1 construct: The protein was expressed with an 18 amino acid C-terminal truncation to enhance the solubility; made in house; host or cells: E. coli BL21 (DE3), pET21a
Outline: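 Seven-point IC50s were derived from SPA-based ³H-UTP incorporation after 4 h at 30 °C (Hepes pH 7.5, 2% DMSO). Compound was first mixed with 14 nM Δ18 NS5B genotype 1b enzyme. Then 0.2 nM polyA, 0.29 μM UTP and bead-bound oligo-dT12 (20 nM) were added.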

HCV replicon = HCV replicon FRET assay; assay type: cell-based; settings: Hepatitis C virus; FRET assay; read-out: EC50
Outline: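 Replicon cells (± Renilla luciferase reporter) incubated with titrated compound at 37 °C; NS3 protease activity read by FRET peptide cleavage (20 uM EDANS/DABCYL substrate, 340/490 nm kinetic) or luciferase.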

[2] = modified method (with preincubation)

T1 sequence (Q9WMX2 2420-2992): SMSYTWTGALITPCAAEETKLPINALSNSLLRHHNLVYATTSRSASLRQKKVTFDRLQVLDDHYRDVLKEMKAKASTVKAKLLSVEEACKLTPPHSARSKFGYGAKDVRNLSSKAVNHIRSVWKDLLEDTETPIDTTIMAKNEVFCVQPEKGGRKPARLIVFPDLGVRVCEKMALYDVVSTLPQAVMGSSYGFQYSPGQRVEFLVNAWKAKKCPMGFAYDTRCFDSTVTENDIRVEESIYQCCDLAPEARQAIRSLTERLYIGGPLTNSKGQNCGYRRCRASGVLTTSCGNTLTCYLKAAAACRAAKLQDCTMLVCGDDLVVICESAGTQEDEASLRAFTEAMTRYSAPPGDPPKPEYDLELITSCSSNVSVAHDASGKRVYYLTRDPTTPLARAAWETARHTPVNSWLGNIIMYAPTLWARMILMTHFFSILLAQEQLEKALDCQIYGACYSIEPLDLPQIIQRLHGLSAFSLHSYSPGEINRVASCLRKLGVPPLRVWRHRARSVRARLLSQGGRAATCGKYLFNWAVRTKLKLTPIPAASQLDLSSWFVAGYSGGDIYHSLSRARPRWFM

Compound	IC50 ([1]; preincubation protocol)	EC50 (HCV replicon)	IC50 [1, 2]
C[C@@H]1CN(C(=O)C2=Cc3ccccc3-c3c(C4CCCCC4)c4ccc(C(=O)NC5(C(=O)Nc6ccc(-n7cncn7)cc6)CCCC5)cc4n3C2)C[C@H](C)O1	10 to 1000 nM	50 to 1000 nM	–
O=C(O)/C=C/c1ccc(NC(=O)C2(NC(=O)c3ccc4c(C5CCCCC5)c5n(c4c3)CCCc3ocnc3-5)CCCC2)cc1	–	10 to 1000 nM	20 to 1000 nM
O=C(NS(=O)(=O)C1CC1)c1ccc2c(C3CCCCC3)c3n(c2c1)CC(C(=O)N1CCOCC1)Cc1ccccc1-3 (stereo not drawn) [drawing 287]	–	10 to 1000 nM	20 to 1000 nM
COC(=O)c1ccc2c(C3CCCCC3)c3n(c2c1)C(O)c1cc(OCc2ccccc2)ccc1-3 (stereo not drawn)	1000 to 10000 nM	> 100 nM	–
CC(=O)N1CCn2c(c(C3CCCCC3)c3ccc(C(=O)NS(=O)(=O)N(C)C)cc32)-c2ccccc21	–	10 to 1000 nM	20 to 1000 nM
O=C(O)/C=C/c1ccc(NC(=O)C2(NC(=O)c3ccc4c(C5CCCCC5)c5n(c4c3)CC(C(=O)N3CCN(c4ccncc4)CC3)Cc3ccccc3-5)CCCC2)cc1 (stereo not drawn)	–	10 to 1000 nM	20 to 1000 nM
COC(=O)C1=Cc2ccccc2-c2c(C3CCCCC3)c3ccc(C(=O)NS(=O)(=O)N(C)C)cc3n2C1	–	10 to 1000 nM	20 to 1000 nM
CN(C)CCNC(=O)C1Cc2ccccc2-c2c(C3CCCCC3)c3ccc(C(=O)NC4(C(=O)Nc5ccc(/C=C/C(=O)O)cc5)CCCC4)cc3n2C1 (stereo not drawn)	–	10 to 1000 nM	20 to 1000 nM
CCN(C)C(=O)C1=Cc2cc(OC)ccc2-c2c(C3CCCCC3)c3ccc(C(=O)NS(=O)(=O)N(C)C)cc3n2C1	10 to 1000 nM	50 to 1000 nM	–
Cn1c(C(=O)O)cc2cc(NC(=O)C3(NC(=O)c4ccc5c(C6CCCCC6)c6n(c5c4)CC(=O)Nc4ccccc4-6)CCCC3)ccc21	–	10 to 1000 nM	20 to 1000 nM
CN(C)S(=O)(=O)NC(=O)c1ccc2c(C3CCCCC3)c3n(c2c1)C[C@H](C(=O)N1CCOCC1)Cc1ccccc1-3	–	10 to 1000 nM	20 to 1000 nM
COC(=O)c1ccc2c(C3CCCCC3)c3n(c2c1)CC(C(=O)N1CCOCC1)=C(C)c1ccccc1-3	–	1000 to 10000 nM	> 1000 nM
CN(C)S(=O)(=O)NC(=O)c1ccc2c(C3CCCCC3)c3n(c2c1)CC(C(=O)N1CCOCC1)=Cc1ccc(Cl)cc1-3	–	1000 to 10000 nM	20 to 1000 nM
COC(=O)c1ccc2c(C3CCCCC3)c3n(c2c1)CC(N1CCOCC1)Cc1ccccc1-3 (stereo not drawn)	–	10 to 1000 nM	> 1000 nM
CC(C)(C)OC(=O)N1CC(O)Cn2c(c(C3CCCCC3)c3ccc(C(=O)O)cc32)-c2ccccc21 (stereo not drawn)	–	1000 to 10000 nM	20 to 1000 nM
O=C(O)c1ccc2c(C3CCCCC3)c3n(c2c1)CC(C(=O)N1CCOCC1)=Cc1ccc(Cl)cc1-3	–	1000 to 10000 nM	20 to 1000 nM
COc1ccc2c(c1)C=C(C(=O)N1CCC(O)CC1)Cn1c-2c(C2CCCCC2)c2ccc(C(=O)NS(=O)(=O)N(C)C)cc21	10 to 1000 nM	50 to 1000 nM	–
CN(C)S(=O)(=O)NC(=O)c1ccc2c(C3CCCCC3)c3n(c2c1)C[C@@H](C(=O)N1CCC(N2CCCC2)CC1)Cc1ccccc1-3	–	10 to 1000 nM	20 to 1000 nM
O=C(O)/C=C/c1ccc(NC(=O)C2(NC(=O)c3ccc4c(C5CCCCC5)c5n(c4c3)CCOc3ncccc3-5)CCCC2)cc1	–	10 to 1000 nM	20 to 1000 nM
CN(C)S(=O)(=O)NC(=O)c1ccc2c(C3CCCCC3)c3n(c2c1)CCCNc1ccccc1-3	10 to 1000 nM	50 to 1000 nM	–
COC(=O)c1ccc2c(C3CCCCC3)c3n(c2c1)CCCc1cc(OCc2cc([N+](=O)[O-])ccc2F)ccc1-3	–	1000 to 10000 nM	> 1000 nM
CN(C)C(=O)NC(=O)c1ccc2c(C3CCCCC3)c3n(c2c1)CC(C(=O)N1CCOCC1)=Cc1ccccc1-3	–	1000 to 10000 nM	20 to 1000 nM
CN(C)S(=O)(=O)NC(=O)c1ccc2c(C3CCCCC3)c3n(c2c1)CC(C(=O)N1CCNCC1)=Cc1ccccc1-3	–	10 to 1000 nM	20 to 1000 nM
CCOC(=O)/C=C/c1ccc(NC(=O)C2(NC(=O)c3ccc4c(C5CCCCC5)c5n(c4c3)CC(=O)Nc3ccccc3-5)CCNCC2)cc1	–	10 to 1000 nM	20 to 1000 nM
CN(CC(O)CO)C(=O)C1=Cc2ccccc2-c2c(C3CCCCC3)c3ccc(C(=O)NS(=O)(=O)N(C)C)cc3n2C1 (stereo not drawn)	–	10 to 1000 nM	20 to 1000 nM
O=C(O)/C=C/c1ccc2[nH]c(C3(NC(=O)c4ccc5c(C6CCCCC6)c6c7ccccc7ncn6c5c4)CCCC3)nc2c1	–	10 to 1000 nM	20 to 1000 nM
COC(=O)c1ccc(CN(C)S(=O)(=O)NC(=O)c2ccc3c(C4CCCCC4)c4n(c3c2)CC(=O)Nc2ccccc2-4)cc1	–	10 to 1000 nM	20 to 1000 nM
COC(=O)c1ccc2c(C3CCCCC3)c3n(c2c1)CC(CO)=Cc1ccccc1-3	> 1000 nM	50 to 1000 nM	–
CCS(=O)(=O)NC(=O)c1ccc2c(C3CCCCC3)c3n(c2c1)CC(C(=O)N1CCOCC1)=Cc1ccccc1-3	–	10 to 1000 nM	20 to 1000 nM
COc1ccc2c(c1)CC(C(=O)N1CCOCC1)Cn1c-2c(C2CCCCC2)c2ccc(C(=O)O)cc21 (stereo not drawn)	–	10 to 1000 nM	20 to 1000 nM
